# Laboratory results reported in ChEMBL document CHEMBL5325431, “Synthesis of thieno[3,2-e]pyrrolo[1,2-a]pyrimidine derivatives and their precursors containing 2-aminothiophenes fragments as anticancer agents for therapy of pulmonary metastatic melanoma” (Eur J Med Chem, 2023).
# Active and inactive are the calls of the source. The calls are words filed in the database; no cut-off is given here.
# What was measured:
# B16-F10 [1] = experiment: Cytotoxicity against mouse B16-F10 cells assessed as cell survival incubated for 24 hrs by alamarblue staining based analysis; assay type: functional; settings: B16-F10, 24 h
# [2] = Cytotoxicity against NF2-deficient mouse MEF cells assessed as cell survival incubated for 24 hrs by alamarblue staining based analysis; assay type: toxicity
# B16-F10 [3] = experiment: Cytotoxicity against mouse B16-F10 cells assessed as inhibition of cell growth incubated for 24 hrs by alamarblue staining based assay; assay type: functional; settings: dose 0.28-55 µM
# MEF = experiment: Cytotoxicity against NF2-deficient mouse MEF cells assessed as reduction in cell viability at 0.2 to 55 uM incubated for 24 hrs by alamarblue staining based analysis; assay type: toxicity; settings: dose 0.2-55 µM
# B16-F10 [4] = experiment: Cytotoxicity against mouse B16-F10 cells assessed as cell death by measuring increase in red fluorescence at 0.5 to 10 uM by calcein AM/PI staining based confocal laser scanning microscopy analysis; assay type: functional; settings: dose 0.5-10 µM
# B16-F10 [5] = experiment: Cytotoxicity against mouse B16-F10 cells assessed as cell death by measuring increase in red fluorescence at 10 uM by calcein AM/PI staining based confocal laser scanning microscopy analysis; assay type: functional
# B16-F10 [6] = experiment: Induction of apoptosis in mouse B16-F10 cells assessed as viable cells at 5 uM measured after 48 hrs by Annexin V-FITC/7-AAD staining based flow cytometric analysis relative to control; assay type: functional; settings: read-out: Activity
# B16-F10 [7] = experiment: Induction of apoptosis in mouse B16-F10 cells assessed as early apoptotic cells at 5 uM measured after 48 hrs by Annexin V-FITC/7-AAD staining based flow cytometric analysis relative to control; assay type: functional
# B16-F10 [8] = experiment: Induction of apoptosis in mouse B16-F10 cells assessed as late apoptotic cells at 5 uM measured after 48 hrs by Annexin V-FITC/7-AAD staining based flow cytometric analysis relative to control; assay type: functional
# B16-F10 [9] = experiment: Induction of apoptosis in mouse B16-F10 cells assessed as necrotic cells at 5 uM measured after 48 hrs by Annexin V-FITC/7-AAD staining based flow cytometric analysis relative to control; assay type: functional
# B16-F10 [10] = experiment: Induction of apoptosis in mouse B16-F10 cells assessed as viable cells at 10 uM measured after 48 hrs by Annexin V-FITC/7-AAD staining based flow cytometric analysis relative to control; assay type: functional; settings: read-out: Activity
# B16-F10 [11] = experiment: Induction of apoptosis in mouse B16-F10 cells assessed as early apoptotic cells at 10 uM measured after 48 hrs by Annexin V-FITC/7-AAD staining based flow cytometric analysis relative to control; assay type: functional
# B16-F10 [12] = experiment: Induction of apoptosis in mouse B16-F10 cells assessed as late apoptotic cells at 10 uM measured after 48 hrs by Annexin V-FITC/7-AAD staining based flow cytometric analysis relative to control; assay type: functional
# B16-F10 [13] = experiment: Induction of apoptosis in mouse B16-F10 cells assessed as necrotic cells at 10 uM measured after 48 hrs by Annexin V-FITC/7-AAD staining based flow cytometric analysis relative to control; assay type: functional
# B16-F10 [14] = experiment: Induction of apoptosis in mouse B16-F10 cells assessed as viable cells at 15 uM measured after 48 hrs by Annexin V-FITC/7-AAD staining based flow cytometric analysis relative to control; assay type: functional; settings: read-out: Activity
# B16-F10 [15] = experiment: Induction of apoptosis in mouse B16-F10 cells assessed as early apoptotic cells at 15 uM measured after 48 hrs by Annexin V-FITC/7-AAD staining based flow cytometric analysis relative to control; assay type: functional
# B16-F10 [16] = experiment: Induction of apoptosis in mouse B16-F10 cells assessed as late apoptotic cells at 15 uM measured after 48 hrs by Annexin V-FITC/7-AAD staining based flow cytometric analysis relative to control; assay type: functional
# B16-F10 [17] = experiment: Induction of apoptosis in mouse B16-F10 cells assessed as necrotic cells at 15 uM measured after 48 hrs by Annexin V-FITC/7-AAD staining based flow cytometric analysis relative to control; assay type: functional
# B16-F10 [18] = experiment: Induction of apoptosis in mouse B16-F10 cells assessed as early apoptotic cells at 20 uM measured after 48 hrs by Annexin V-FITC/7-AAD staining based flow cytometric analysis relative to control; assay type: functional
# B16-F10 [19] = experiment: Induction of apoptosis in mouse B16-F10 cells assessed as necrotic cells at 20 uM measured after 48 hrs by Annexin V-FITC/7-AAD staining based flow cytometric analysis relative to control; assay type: functional
# CT26 = experiment: Cytotoxicity against mouse CT26 cells assessed as cell survival incubated for 24 hrs by alamarblue staining based analysis; assay type: functional; settings: CT26, 24 h
# [20] = Toxicity in C57BL/6 mouse assessed as body weight gain at 37 mg/kg, ip measured for 22 days; assay type: organism-based; settings: in vivo, 528 h, time 22 day
# [21] = Toxicity in C57BL/6 mouse assessed as effect on AST level at 37 mg/kg, ip measured for 22 days; assay type: organism-based; settings: in vivo, 528 h, time 22 day
# [22] = Toxicity in C57BL/6 mouse assessed as effect on ALT level at 37 mg/kg, ip measured for 22 days; assay type: organism-based; settings: in vivo, 528 h, time 22 day
# [23] = Toxicity in C57BL/6 mouse assessed as effect on urea level at 37 mg/kg, ip measured for 22 days; assay type: organism-based; settings: in vivo, 528 h, time 22 day
# B16-F10 [24] = experiment: Antitumor activity against metastatic mouse B16-F10 cells implanted in C57BL/6 mouse assessed as number of lung metastases at 9 to 9.5 mg/kg, ip administered for 12 days by histological analysis (reference value: 150 +/- 7); assay type: functional; settings: dose 9-9.5 mg/kg, time 12 day
# B16-F10 [25] = experiment: Antitumor activity against metastatic mouse B16-F10 cells implanted in C57BL/6 mouse assessed as number of lung metastases at 9 to 9.5 mg/kg, ip administered for 15 days by histological analysis (reference value: 175 +/- 10); assay type: functional; settings: dose 9-9.5 mg/kg, time 15 day
# B16-F10 [26] = experiment: Antitumor activity against metastatic mouse B16-F10 cells implanted in C57BL/6 mouse assessed as number of lung metastases at 9 to 9.5 mg/kg, ip administered for 19 days by histological analysis (reference value: 190 +/- 9); assay type: functional; settings: dose 9-9.5 mg/kg, time 19 day
# B16-F10 [27] = experiment: Antitumor activity against metastatic mouse B16-F10 cells implanted in C57BL/6 mouse assessed as number of lung metastases at 4.6 to 42 mg/kg, ip administered every 3rd day for 22 days measured on day 23 by histological analysis (reference value: 223 +/- 12); assay type: functional; settings: dose 4.6-42 mg/kg, time 23 day
# [28] = Toxicity in C57BL/6 mouse implanted with mouse B16-F10 cells assessed as spleen damage at 4.6 to 42 mg/kg, ip by H and E staining based analysis; assay type: organism-based; settings: in vivo, dose 4.6-42 mg/kg
# [29] = Toxicity in C57BL/6 mouse implanted with mouse B16-F10 cells assessed as kidney damage at 4.6 to 42 mg/kg, ip by H and E staining based analysis; assay type: organism-based; settings: in vivo, dose 4.6-42 mg/kg
# [30] = Toxicity in C57BL/6 mouse implanted with mouse B16-F10 cells assessed as heart damage at 4.6 to 42 mg/kg, ip by H and E staining based analysis; assay type: organism-based; settings: in vivo, dose 4.6-42 mg/kg
# [31] = Toxicity in C57BL/6 mouse implanted with mouse B16-F10 cells assessed as spleen damage at 9 to 9.5 mg/kg, ip by H and E staining based analysis; assay type: organism-based; settings: in vivo, dose 9-9.5 mg/kg
# [32] = Toxicity in C57BL/6 mouse implanted with mouse B16-F10 cells assessed as kidney damage at 9 to 9.5 mg/kg, ip by H and E staining based analysis; assay type: organism-based; settings: in vivo, dose 9-9.5 mg/kg
Compound,IC50 (B16-F10 [1]),IC50 at 24 h [2],Activity (B16-F10 [3]),Activity (MEF),Activity (B16-F10 [4]),Activity (B16-F10 [5]),viability at 5 µM (B16-F10 [6]),Activity (B16-F10 [7]),Activity (B16-F10 [8]),Activity (B16-F10 [9]),viability at 10 µM (B16-F10 [10]),Activity (B16-F10 [11]),Activity (B16-F10 [12]),Activity (B16-F10 [13]),viability at 15 µM (B16-F10 [14]),Activity (B16-F10 [15]),Activity (B16-F10 [16]),Activity (B16-F10 [17]),Activity (B16-F10 [18]),Activity (B16-F10 [19]),also measured
COc1ccc(C(=O)/C=C2\C(=O)C(C#N)=C3NC(=O)c4c(sc5c4CCCCC5)N32)cc1,6.2 µM,> 100 µM,Dose-Dependent Effect,Non-Toxic,Active,Active,63.2%,2.8%,30.8%,3.2%,0.3%,0.5%,88.6%,10.7%,0.4%,0.8%,91.7%,7.2%,0.3%,7.4%,IC50 (CT26): 9.3 µM; Activity [20]: Toxic; Activity [21]: Non-Toxic; Activity [22]: Non-Toxic; Activity [23]: Non-Toxic; Activity (B16-F10 [24]): 143; Activity (B16-F10 [25]): 120; Activity (B16-F10 [26]): 87; Activity (B16-F10 [27]): 55; Activity [28]: Non-Toxic; Activity [29]: Non-Toxic; Activity [30]: Non-Toxic; Activity [31]: Non-Toxic; Activity [32]: Non-Toxic
CCOC(=O)c1c(N2C(N)=C(C#N)C(=O)/C2=C\C(=O)c2ccc(C)cc2)sc2c1CCCCC2,4.8 µM,> 100 µM,Dose-Dependent Effect,Non-Toxic,Active,Active,35.4%,1.4%,30.4%,32.8%,1.1%,1.5%,75.6%,21.8%,0.1%,0.5%,96.1%,3.3%,1%,2.3%,IC50 (CT26): 7.4 µM; Activity [20]: Toxic; Activity [21]: Non-Toxic; Activity [22]: Non-Toxic; Activity [23]: Non-Toxic; Activity (B16-F10 [24]): 145; Activity (B16-F10 [25]): 105; Activity (B16-F10 [26]): 67; Activity (B16-F10 [27]): 29; Activity [28]: Non-Toxic; Activity [29]: Non-Toxic; Activity [30]: Non-Toxic; Activity [31]: Non-Toxic; Activity [32]: Non-Toxic
CCOC(=O)c1c(NC(=C\C(=O)c2ccc(OC)cc2)/C([O-])=C(\C#N)C(N)=O)sc2c1CCCC2.[K+],2.41 µM,> 100 µM,Dose-Dependent Effect,Non-Toxic,Active,Active,5.8%,2.2%,43.5%,48.5%,0.5%,0.3%,85.3%,14%,0.3%,0.5%,94.3%,4.9%,0.8%,3.8%,IC50 (CT26): 4.3 µM; Activity [20]: Toxic; Activity [21]: Non-Toxic; Activity [22]: Non-Toxic; Activity [23]: Non-Toxic; Activity (B16-F10 [24]): 161; Activity (B16-F10 [25]): 94; Activity (B16-F10 [26]): 54; Activity (B16-F10 [27]): ~10; Activity [28]: Non-Toxic; Activity [29]: Non-Toxic; Activity [30]: Non-Toxic; Activity [31]: Non-Toxic; Activity [32]: Non-Toxic
